In patent US4033721A, “Analysis of gentian violet residue in tissue” (priority 1976, dated 1977):
Where “and” joins values, the source holds several entries; their conditions need not be identical. Identical values can stand only once.

Assay: Residual 14C-gentian violet in tissues of cockerels after repeated oral administration (Example 26)
Conditions: for 14C dpm/Organ / 14C dpm/gram / ug/gram (ppm) in organ: individual bird; for Mean tissue residue: oral; for Mean tissue residue, mean of two values without the sport: 2.5 mg/kg

SMILES: CN(C)c1ccc(C(=C2C=CC(=[N+](C)C)C=C2)c2ccc(N(C)C)cc2)cc1 [^14 C-gentian violet]
- Residue 72 hrs. post-dose (breast muscle): 0.012 ppm
- Residue 72 hrs. post-dose (gizzard muscle): 0.002 ppm
- Residue 72 hrs. post-dose (heart muscle): 0.007 ppm
- 14C dpm/Organ (kidneys, 1X dose, 4 hours): 2,863 dpm/Organ and 4,271 dpm/Organ and 2,272 dpm/Organ
- 14C dpm/gram (kidneys, 1X dose, 4 hours): 1,184 dpm/gram and 1,634 dpm/gram and 1,269 dpm/gram
- ug/gram (ppm) in organ (kidneys, 1X dose, 4 hours, 240 min): 0.089 ppm and 0.123 ppm and 0.095 ppm
- 14C dpm/Organ (kidneys, 1X dose, 12 hours): 1,746 dpm/Organ and 1,696 dpm/Organ and 3,452 dpm/Organ
- 14C dpm/gram (kidneys, 1X dose, 12 hours): 820 dpm/gram and 764 dpm/gram and 1,561 dpm/gram
- ug/gram (ppm) in organ (kidneys, 1X dose, 12 hours, 720 min): 0.062 ppm and 0.057 ppm and 0.117 ppm
- 14C dpm/Organ (kidneys, 1X dose, 24 hours): 2,705 dpm/Organ and 1,481 dpm/Organ and 1,644 dpm/Organ
- 14C dpm/gram (kidneys, 1X dose, 24 hours): 1,463 dpm/gram and 639 dpm/gram and 561 dpm/gram
- ug/gram (ppm) in organ (kidneys, 1X dose, 24 hours, 1440 min): 0.110 ppm and 0.048 ppm and 0.042 ppm
- 14C dpm/Organ (kidneys, 1X dose, 48 hours): 1,186 dpm/Organ and 863 dpm/Organ
- 14C dpm/gram (kidneys, 1X dose, 48 hours): 511 dpm/gram and 527 dpm/gram
- ug/gram (ppm) in organ (kidneys, 1X dose, 48 hours, 2880 min): 0.038 ppm and 0.040 ppm
- 14C dpm/Organ (kidneys, 1X dose, 72 hours): 972 dpm/Organ and 759 dpm/Organ
- 14C dpm/gram (kidneys, 1X dose, 72 hours): 333 dpm/gram and 289 dpm/gram
- ug/gram (ppm) in organ (kidneys, 1X dose, 72 hours, 4320 min): 0.025 ppm and 0.022 ppm
- 14C dpm/Organ (kidneys, 5X dose, 4 hours): 11,116 dpm/Organ and 9,227 dpm/Organ and 8.867 dpm/Organ and 12,505 dpm/Organ
- 14C dpm/gram (kidneys, 5X dose, 4 hours): 9,183 dpm/gram and 4,798 dpm/gram and 4,729 dpm/gram and 6,658 dpm/gram
- ug/gram (ppm) in organ (kidneys, 5X dose, 4 hours, 240 min): 0.691 ppm and 0.361 ppm and 0.356 ppm and 0.501 ppm
- 14C dpm/Organ (kidneys, 5X dose, 12 hours): 11,939 dpm/Organ and 6,796 dpm/Organ and 6,537 dpm/Organ and 5,712 dpm/Organ and 7,815 dpm/Organ
- 14C dpm/gram (kidneys, 5X dose, 12 hours): 5,250 dpm/gram and 3,258 dpm/gram and 3,060 dpm/gram and 2,334 dpm/gram and 3,855 dpm/gram
- ug/gram (ppm) in organ (kidneys, 5X dose, 12 hours, 720 min): 0.395 ppm and 0.245 ppm and 0.230 ppm and 0.176 ppm and 0.290 ppm
- 14C dpm/Organ (kidneys, 5X dose, 24 hours): 6,185 dpm/Organ and 6,443 dpm/Organ and 7,315 dpm/Organ and 3,623 dpm/Organ
- 14C dpm/gram (kidneys, 5X dose, 24 hours): 3,002 dpm/gram and 2,961 dpm/gram and 3,751 dpm/gram and 1,463 dpm/gram
- ug/gram (ppm) in organ (kidneys, 5X dose, 24 hours, 1440 min): 0.226 ppm and 0.223 ppm and 0.282 ppm and 0.110 ppm
- 14C dpm/Organ (kidneys, 5X dose, 48 hours): 2,197 dpm/Organ and 3,750 dpm/Organ and 2,882 dpm/Organ
- 14C dpm/gram (kidneys, 5X dose, 48 hours): 982 dpm/gram and 1,647 dpm/gram and 1,508 dpm/gram
- ug/gram (ppm) in organ (kidneys, 5X dose, 48 hours, 2880 min): 0.074 ppm and 0.124 ppm and 0.113 ppm
- 14C dpm/Organ (kidneys, 5X dose, 72 hours): 4,998 dpm/Organ and 1,843 dpm/Organ and 1,792 dpm/Organ
- 14C dpm/gram (kidneys, 5X dose, 72 hours): 4,044 dpm/gram and 844 dpm/gram and 1,042 dpm/gram
- ug/gram (ppm) in organ (kidneys, 5X dose, 72 hours, 4320 min): 0.304 ppm and 0.067 ppm and 0.078 ppm
- 14C dpm/Organ (liver, 1X dose, 4 hours): 21,804 dpm/Organ and 36,280 dpm/Organ and 16,323 dpm/Organ
- 14C dpm/gram (liver, 1X dose, 4 hours): 3,084 dpm/gram and 5,753 dpm/gram and 2,493 dpm/gram
- ug/gram (ppm) in organ (liver, 1X dose, 4 hours, 240 min): 0.232 ppm and 0.433 ppm and 0.188 ppm
- 14C dpm/Organ (liver, 1X dose, 12 hours): 5,477 dpm/Organ and 5,889 dpm/Organ and 19,188 dpm/Organ
- 14C dpm/gram (liver, 1X dose, 12 hours): 996 dpm/gram and 927 dpm/gram and 2,857 dpm/gram
- ug/gram (ppm) in organ (liver, 1X dose, 12 hours, 720 min): 0.075 ppm and 0.070 ppm and 0.215 ppm
- 14C dpm/Organ (liver, 1X dose, 24 hours): 14,586 dpm/Organ and 5,165 dpm/Organ and 7,248 dpm/Organ
- 14C dpm/gram (liver, 1X dose, 24 hours): 2,890 dpm/gram and 830 dpm/gram and 851 dpm/gram
- ug/gram (ppm) in organ (liver, 1X dose, 24 hours, 1440 min): 0.217 ppm and 0.062 ppm and 0.064 ppm
- 14C dpm/Organ (liver, 1X dose, 48 hours): 8,396 dpm/Organ and 6,073 dpm/Organ
- 14C dpm/gram (liver, 1X dose, 48 hours): 1,419 dpm/gram and 1,292 dpm/gram
- ug/gram (ppm) in organ (liver, 1X dose, 48 hours, 2880 min): 0.107 ppm and 0.097 ppm
- 14C dpm/Organ (liver, 1X dose, 72 hours): 7,261 dpm/Organ and 3,744 dpm/Organ
- 14C dpm/gram (liver, 1X dose, 72 hours): 546 dpm/gram and 361 dpm/gram
- ug/gram (ppm) in organ (liver, 1X dose, 72 hours, 4320 min): 0.041 ppm and 0.027 ppm
- 14C dpm/Organ (liver, 5X dose, 4 hours): 44,618 dpm/Organ and 50,607 dpm/Organ and 42,844 dpm/Organ and 46,652 dpm/Organ
- 14C dpm/gram (liver, 5X dose, 4 hours): 13,878 dpm/gram and 9,859 dpm/gram and 8,038 dpm/gram and 9,651 dpm/gram
- ug/gram (ppm) in organ (liver, 5X dose, 4 hours, 240 min): 1.044 ppm and 0.742 ppm and 0.605 ppm and 0.726 ppm
- 14C dpm/Organ (liver, 5X dose, 12 hours): 66,438 dpm/Organ and 24,948 dpm/Organ and 17,753 dpm/Organ and 26,299 dpm/Organ and 68,033 dpm/Organ
- 14C dpm/gram (liver, 5X dose, 12 hours): 11,801 dpm/gram and 4,135 dpm/gram and 3,201 dpm/gram and 3,772 dpm/gram and 10,291 dpm/gram
- ug/gram (ppm) in organ (liver, 5X dose, 12 hours, 720 min): 0.888 ppm and 0.311 ppm and 0.241 ppm and 0.284 ppm and 0.774 ppm
- 14C dpm/Organ (liver, 5X dose, 24 hours): 60,300 dpm/Organ and 67,384 dpm/Organ and 68,033 dpm/Organ and 20,674 dpm/Organ
- 14C dpm/gram (liver, 5X dose, 24 hours): 9.588 dpm/gram and 10,942 dpm/gram and 12,714 dpm/gram and 2,845 dpm/gram
- ug/gram (ppm) in organ (liver, 5X dose, 24 hours, 1440 min): 0.721 ppm and 0.823 ppm and 0.957 ppm and 0.215 ppm
- 14C dpm/Organ (liver, 5X dose, 48 hours): 15,334 dpm/Organ and 27,176 dpm/Organ and 13,617 dpm/Organ
- 14C dpm/gram (liver, 5X dose, 48 hours): 2,649 dpm/gram and 5,220 dpm/gram and 3,102 dpm/gram
- ug/gram (ppm) in organ (liver, 5X dose, 48 hours, 2880 min): 0.199 ppm and 0.393 ppm and 0.233 ppm
- 14C dpm/Organ (liver, 5X dose, 72 hours): 45,587 dpm/Organ and 10,991 dpm/Organ and 13,245 dpm/Organ
- 14C dpm/gram (liver, 5X dose, 72 hours): 21,927 dpm/gram and 2,447 dpm/gram and 2,991 dpm/gram
- ug/gram (ppm) in organ (liver, 5X dose, 72 hours, 4320 min): 1.650 ppm and 0.184 ppm and 0.225 ppm
- Residue 72 hrs. post-dose (kidney): 0.024 ppm
- Elimination Rate Constant (Ke) (kidneys, 1X dose): -0.0209 h⁻¹
- Mean tissue residue (kidneys, 1X dose (0.5 mg/kg), 4 hrs. post-dose): 0.102 ppm
- Mean tissue residue (kidneys, 1X dose (0.5 mg/kg), 12 hrs. post-dose): 0.079 ppm
- Mean tissue residue (kidneys, 1X dose (0.5 mg/kg), 24 hrs. post-dose): 0.067 ppm
- Mean tissue residue (kidneys, 1X dose (0.5 mg/kg), 48 hrs. post-dose): 0.039 ppm
- Mean tissue residue (kidneys, 1X dose (0.5 mg/kg), 72 hrs. post-dose): 0.024 ppm
- Elimination Rate Constant (Ke) (kidneys, 5X dose): -0.0262 h⁻¹
- Half-Life (t1/2) (kidneys, 5X dose): 26.7 h
- Mean tissue residue (kidneys, 5X dose (2.5 mg/kg), 4 hrs. post-dose): 0.477 ppm
- Mean tissue residue (kidneys, 5X dose (2.5 mg/kg), 12 hrs. post-dose): 0.267 ppm
- Mean tissue residue (kidneys, 5X dose (2.5 mg/kg), 24 hrs. post-dose): 0.210 ppm
- Mean tissue residue (kidneys, 5X dose (2.5 mg/kg), 48 hrs. post-dose): 0.104 ppm
- Mean tissue residue (kidneys, 5X dose (2.5 mg/kg), 72 hrs. post-dose, includes a sport, high value among three): 0.150 ppm
- Mean tissue residue, mean of two values without the sport (kidneys, 5X dose, 72 hrs. post-dose): 0.073 ppm
- Residue 72 hrs. post-dose (liver): 0.034 ppm
- Mean tissue residue (liver, 1X dose (0.5 mg/kg), 4 hrs. post-dose): 0.284 ppm
- Mean tissue residue (liver, 1X dose (0.5 mg/kg), 12 hrs. post-dose): 0.120 ppm
- Mean tissue residue (liver, 1X dose (0.5 mg/kg), 24 hrs. post-dose): 0.114 ppm
- Mean tissue residue (liver, 1X dose (0.5 mg/kg), 48 hrs. post-dose): 0.102 ppm
- Mean tissue residue (liver, 1X dose (0.5 mg/kg), 72 hrs. post-dose): 0.034 ppm
- Mean tissue residue (liver, 5X dose (2.5 mg/kg), 4 hrs. post-dose): 0.779 ppm
- Mean tissue residue (liver, 5X dose (2.5 mg/kg), 12 hrs. post-dose): 0.500 ppm
- Mean tissue residue (liver, 5X dose (2.5 mg/kg), 24 hrs. post-dose): 0.679 ppm
- Mean tissue residue (liver, 5X dose (2.5 mg/kg), 48 hrs. post-dose): 0.275 ppm
- Mean tissue residue (liver, 5X dose (2.5 mg/kg), 72 hrs. post-dose, includes a sport, high value among three): 0.686 ppm
- Mean tissue residue, mean of two values without the sport (liver, 5X dose, 72 hrs. post-dose): 0.205 ppm
- Elimination Rate Constant (Ke) (livers, 1X dose): -0.0247 h⁻¹
- Half-Life (t1/2) (livers, 1X dose): 28.0 h
- Elimination Rate Constant (Ke) (livers, 5X dose): -0.0193 h⁻¹
- Half-Life (t1/2) (livers, 5X dose): 35.9 h
- Residue 72 hrs. post-dose (skin/fat): 0.016 ppm
- Residue 72 hrs. post-dose (thigh muscle): 0.012 ppm
